Values after ≈ are worked out from the molar mass of the structure shown. Bridge positions count the residues as written; N and C are the ends. Square brackets hold non-standard residues; d marks the D form. Peptide text beside a SMILES is read from it. * marks the point of attachment. Octanoyl(6-Me) = CCC(C)CCCCC(=O)*; hSer = N[C@@H](CCO)C(=O)O; Octanoyl = CCCCCCCC(=O)*; Dab = NCC[C@H](N)C(=O)O
Experiments:
HepG2 = conditions: CC50 HepG2 (µM)
[1] = tested on: K. pneumoniae ATTC BAA-2146, NDM-1 pos; conditions: MIC K. pneumoniae ATTC BAA-2146, NDM-1 pos (µg/mL)
[2] = tested on: P. aeruginosa PA9704, PmxR; conditions: MIC P. aeruginosa PA9704, PmxR (µg/mL)
[3] = tested on: K. pneumoniae CI 138-16357-20362, PmxR; conditions: MIC K. pneumoniae CI 138-16357-20362, PmxR (µg/mL)
P. aeruginosa ATCC 27853 = conditions: MIC P. aeruginosa ATCC 27853 (µg/mL)
[4] = tested on: P. aeruginosa FADDI-PA070, PmxR; conditions: MIC P. aeruginosa FADDI-PA070, PmxR (µg/mL)
[5] = tested on: A. baumannii CI Ptyela 100734512:2, PmxR; conditions: MIC A. baumannii CI Ptyela 100734512:2, PmxR (µg/mL)
[6] = tested on: S. aureus ATCC 25923, MSSA; conditions: MIC S. aureus ATCC 25923, MSSA (µg/mL)
A. baumannii ATCC 19606 = conditions: MIC A. baumannii ATCC 19606 (µg/mL)
E. coli ATCC 25922 = conditions: MIC E. coli ATCC 25922 (µg/mL)
[7] = tested on: K. pneumoniae ATCC 700603, MDR; conditions: MIC K. pneumoniae ATCC 700603, MDR(µg/mL)
[8] = tested on: K. pneumoniae CI Koprana 100650661:1, PmxR; conditions: MIC K. pneumoniae CI Koprana 100650661:1, PmxR (µg/mL)
K. pneumoniae ATCC 13883 = conditions: MIC K. pneumoniae ATCC 13883 (µg/mL)
[9] = tested on: S. aureus ATCC 25923, MSSA; assay: microbe, parasite or virus in culture; assay type: cell-based, Staphylococcus aureus; conditions: MHB, 5 × 10^5 CFU/mL, read visually after 18 h at 37 °C
Method: (§1) Bacteria were either obtained from American Type Culture Collection (ATCC; Manassas, VA, USA) or independent academic clinical isolate collections, as listed in Table S2. Bacteria were cultured in nutrient broth (NB; Bacto Laboratories, catalog no. 234000) or Muller Hinton broth (MHB; Bacto Laboratories, catalog no. 211443) at 37 °C overnight with shaking (∼180 rpm). A sample of each culture was then diluted 50-fold in fresh MHB and incubated at 37 °C for 1.5–3 h with shaking (∼180 rpm). Compound stock solutions were prepared as 0.64 or 2.56 mg/mL in water. The compounds, at twice the final desired concentration, were serially diluted 2-fold across the wells of 96-well plates (Polystyrene, Corning, catalogue No. 3370). Mid log phase bacterial cultures (after 1.5–3 h incubation) were diluted to a final concentration of 5 × 10^5 colony forming units (CFU)/mL, and 50 μL was added to each well giving a final compound concentration range of 32 μg/mL to 0.015 μg/mL (128–0.06 μg/mL for colistin and polymyxin B against the polymyxin resistant clinical isolates). MICs were determined visually after 18 h of incubation at 37 °C, with the MIC defined as the lowest compound concentration at which no bacterial growth was visible.
(§2) Table S2. Bacterial strains used for Minimum Inhibitory Concentration (MIC) […]
(§3) Organism Strain Strain description Strain Source
(§4) Escherichia coli ATCC 25922 FDA strain Seattle 1946 ATCC
(§5) Klebsiella pneumoniae ATCC 13883 Control strain ATCC
(§6) Klebsiella pneumoniae ATCC 700603 Multi-drug resistant ATCC
(§7) Klebsiella pneumoniae BAA-2146 Metallo-beta-lactamase- ATCC
(§8) Acinetobacter baumannii ATCC 19606 Type strain ATCC
(§9) Pseudomonas aeruginosa ATCC 27853 Type strain ATCC
(§10) Pseudomonas aeruginosa FADDI-PA070 Clinical isolate, Nation and Li labs, polymyxin resistant Monash University
(§11) Clinical isolate, Wang Hengzhuang, Pseudomonas aeruginosa PA9704 polymyxin resistant University Hospital of […]
(§12) Ptyela Clinical isolate, Ilias Karaiskos and Acinetobacter baumannii Carbapenem & Helen Giamarellou
(§13) Clinical isolate, Medicine, Hygeia
(§14) Klebsiella pneumoniae Koprana Carbapenem, & General Hospital, […]
(§15) Clinical isolate, (Instituto Dante […]
(§16) polymyxin resistant Cardiologia, São […]

[10] = tested on: A. baumannii CI Ptyela 100734512:2, PmxR; assay: microbe, parasite or virus in culture; assay type: cell-based, Acinetobacter baumannii; conditions: carbapenem & polymyxin resistant clinical isolate; MHB, 5 × 10^5 CFU/mL, 18 h at 37 °C
Method: as §1, §2, §3, §4, §5, §6, §7, §8, §9, §10, §11, §12, §13, §14, §15, §16

HepG2 cells = assay: Cytotoxicity assay (resazurin assay); assay type: cell-based, human; conditions: 4000 cells/well, 24 h incubation with compound, fluorescence 560/590
Method: Cytotoxicity to HEK293 and HepG2 cells was determined using the resazurin assay.[67],[68] […] Compounds were then added into each well. After 24 h incubation, 5 μM resazurin was added per well and incubated at 37 °C for 2 h. Fluorescence intensity was then read using a Polarstar Omega with excitation/emission 560/590. The data were then analyzed using GraphPad Prism 6 software. CC50 values were determined using GraphPad Prism 6 software (Inc. La Jolla, CA).

[11] = tested on: P. aeruginosa FADDI-PA070, PmxR; assay type: cell-based, Pseudomonas aeruginosa; conditions: polymyxin resistant clinical isolate; MHB, 5 × 10^5 CFU/mL, 18 h at 37 °C
Method: as §1, §2, §3, §4, §5, §6, §7, §8, §9, §10, §11, §12, §13, §14, §15, §16

[12] = tested on: K. pneumoniae CI 138-16357-20362, PmxR; assay: microbe, parasite or virus in culture; assay type: cell-based, Klebsiella pneumoniae; conditions: carbapenem & polymyxin resistant clinical isolate; MHB, 5 × 10^5 CFU/mL, 18 h at 37 °C
Method: as §1, §2, §3, §4, §5, §6, §7, §8, §9, §10, §11, §12, §13, §14, §15, §16

[13] = tested on: K. pneumoniae CI Koprana 100650661:1, PmxR; assay: microbe, parasite or virus in culture; assay type: cell-based, Klebsiella pneumoniae; conditions: carbapenem & polymyxin resistant clinical isolate; MHB, 5 × 10^5 CFU/mL, 18 h at 37 °C
Method: as §1, §2, §3, §4, §5, §6, §7, §8, §9, §10, §11, §12, §13, §14, §15, §16

MIC [1] [µg/mL] | MIC (P. aeruginosa ATCC 27853) [µg/mL] | MIC (A. baumannii ATCC 19606) [µg/mL] | MIC (E. coli ATCC 25922) [µg/mL] | MIC [7] [µg/mL] | MIC (K. pneumoniae ATCC 13883) [µg/mL] | SMILES | CC50 (HepG2) [µM] | MIC [2] [µg/mL] | MIC [3] [µg/mL] | MIC [4] [µg/mL] | MIC [5] [µg/mL] | MIC [6] [µg/mL] | MIC [8] [µg/mL] | MIC S. aureus ATCC 25923, MSSA [9] [µg/mL] | MIC A. baumannii CI Ptyela 100734512:2, PmxR [10] [µg/mL] | HepG2 - CC50 (HepG2 cells) [µM] | MIC P. aeruginosa FADDI-PA070, PmxR [11] [µg/mL] | MIC K. pneumoniae CI 138-16357-20362, PmxR [12] [µg/mL] | MIC K. pneumoniae CI Koprana 100650661:1, PmxR [13] [µg/mL]
0.25 (≈ 0.214 µM) | 0.5 (≈ 0.428 µM) | 0.25 (≈ 0.214 µM) | 0.25 (≈ 0.214 µM) | 0.25 (≈ 0.214 µM) | 0.25 (≈ 0.214 µM) | CCC(C)CCCCC(=O)N[C@@H](CCN)C(=O)N[C@H](C(=O)N[C@@H](CCN)C(=O)N[C@H]1CCNC(=O)[C@H]([C@@H](C)O)NC(=O)[C@H](CCN)NC(=O)[C@H](CCN)NC(=O)[C@H](CC(C)C)NC(=O)[C@@H](CC(C)C)NC(=O)[C@H](CCN)NC1=O)[C@@H](C)O (stereo partly drawn) ({Octanoyl(6-Me)}-[Dab]T[Dab][Dab][Dab][dL]L[Dab][Dab]T; lactam 4-C) | > 300 | 128 (≈ 109 µM) | 64 (≈ 54.7 µM) | > 32 | > 64 | > 128 | > 128 |  |  |  |  |  | 
0.25 (≈ 0.208 µM) | 0.5 (≈ 0.415 µM) | 0.25 (≈ 0.208 µM) | 1 (≈ 0.831 µM) | 0.5 (≈ 0.415 µM) | 1 (≈ 0.831 µM) | CCC(C)CCCCC(=O)N[C@@H](CCN)C(=O)N[C@H](C(=O)N[C@@H](CCN)C(=O)N[C@H]1CCNC(=O)[C@H]([C@@H](C)O)NC(=O)[C@H](CCN)NC(=O)[C@H](CCN)NC(=O)[C@H](CC(C)C)NC(=O)[C@@H](Cc2ccccc2)NC(=O)[C@H](CCN)NC1=O)[C@@H](C)O (stereo partly shown) | > 300 | 128 (≈ 106 µM) | 64 (≈ 53.2 µM) | 32 (≈ 26.6 µM) | 64 (≈ 53.2 µM) | > 64 | 64 (≈ 53.2 µM) |  |  |  |  |  | 
 |  |  |  |  |  | CCCCCCCC(=O)N[C@@H](CCN)C(=O)N[C@H](C(=O)N[C@@H](CCN)C(=O)N[C@H]1CCNC(=O)[C@H]([C@@H](C)O)NC(=O)[C@H](CCN)NC(=O)[C@H](CCN)NC(=O)[C@H](CC(C)C)NC(=O)[C@@H](Cc2ccccc2)NC(=O)[C@H](CCN)NC1=O)[C@@H](C)O [Compound 11, polymyxin B3] (Octanoyl-[Dab]T[Dab][Dab][Dab][dF]L[Dab][Dab]T; lactam 4-C) | > 300 | > 128 | > 128 | > 32 | > 64 | > 128 | > 128 | >128 | >64 | >300 | >32 | >128 | >128

SMILES | MIC [1] [µg/mL] | MIC (P. aeruginosa ATCC 27853) [µg/mL] | MIC (A. baumannii ATCC 19606) [µg/mL] | MIC (E. coli ATCC 25922) [µg/mL] | MIC [7] [µg/mL] | MIC (K. pneumoniae ATCC 13883) [µg/mL] | CC50 (HepG2) [µM] | MIC [2] [µg/mL] | MIC [3] [µg/mL] | MIC [4] [µg/mL] | MIC [5] [µg/mL] | MIC [6] [µg/mL] | MIC [8] [µg/mL] | MIC S. aureus ATCC 25923, MSSA [9] [µg/mL] | MIC A. baumannii CI Ptyela 100734512:2, PmxR [10] [µg/mL] | HepG2 - CC50 (HepG2 cells) [µM] | MIC P. aeruginosa FADDI-PA070, PmxR [11] [µg/mL] | MIC K. pneumoniae CI 138-16357-20362, PmxR [12] [µg/mL] | MIC K. pneumoniae CI Koprana 100650661:1, PmxR [13] [µg/mL]
CCCCCCCC(=O)N[C@@H](CCN)C(=O)N[C@H](C(=O)N[C@@H](CCN)C(=O)N[C@H]1CCNC(=O)[C@H]([C@@H](C)O)NC(=O)[C@H](CCN)NC(=O)[C@H](CCN)NC(=O)[C@H](CC(C)C)NC(=O)[C@@H](Cc2ccccc2)NC(=O)[C@H](CCO)NC1=O)[C@@H](C)O [Compound 33] (Octanoyl-[Dab]T[Dab][Dab][hSer][dF]L[Dab][Dab]T; lactam 4-C) |  | > 32 | > 32 |  | > 32 | > 32 | > 300 | > 32 | > 32 | > 32 | > 32 | > 32 | > 32 |  |  |  |  | >32 | >32
